Results reported in patent US20190078052A1, “ENGINEERED ADHESIVE SUBSTRATES FOR HIGH-THROUGHPUT CELL ISOLATION AND SEPARATION” (ARIZONA BOARD OF REGENTS ON BEHALF OF ARIZONA STATE …, priority 2016, published 2019).
Entries after “also recorded” stand apart in the source; their conditions may differ.

How the values were obtained:
T24 3D-DTMs [1] = experiment: Viability of T24 3D-DTMs after docetaxel treatment; assay type: cell-based; conditions: following treatment
cdc42 = cdc42 (Homo sapiens, UniProt P60953); conditions: other cancer cell lines; cited from earlier work
Sequence of cdc42 (P60953 whole entry, species assumed): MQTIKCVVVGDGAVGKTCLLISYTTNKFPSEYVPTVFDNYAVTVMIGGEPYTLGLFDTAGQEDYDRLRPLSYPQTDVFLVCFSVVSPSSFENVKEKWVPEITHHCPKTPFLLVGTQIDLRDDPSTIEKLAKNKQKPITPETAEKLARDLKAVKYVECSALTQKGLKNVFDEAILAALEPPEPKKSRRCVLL

T24 3D-DTMs [2] = experiment: Cell cycle analysis of T24 3D-DTMs by propidium iodide flow cytometry; assay type: cell-based
Procedure: Following five days of incubation on AM3, 3DTMs of T24 cells with NIH3T3 murine fibroblast cells were harvested for cell cycle analysis. Four or five individual 3DTMs of T24 cells alone or UMUC3 cells alone were harvested on the 7th day after seeding on Amikagels, collected in an eppendorf tube. 50 μL of 5 mg/ml collagenase was added to 3DTMs prepared using fibroblast helper cells for 30 minutes at 37° C. in order to facilitate their disassembly by gentle pipetting. Single cell 3DTMs were disassembled using manual pipetting.
Disassembled 3DTM cells were then centrifuged at 200 r.c.f. in order to collect the cell pellet. The pellet was resuspended in a solution of 1% v/v 1× Triton-X, 5% (v/v) fetal bovine serum (FBS), 50 μg/mL propidium iodide, and 0.006-0.01 units/mL ribonuclease A. After incubation for 30 minutes on ice, cells were analyzed for their cell cycle profiles using flow cytometry; the propidium iodide (PI) signal was detected using an excitation at 535 nm and emission at 617 nm.
Voltages of the FL2-A, SSC and FSC channels were adjusted in order to obtain best representative peaks for alignment of 2n (diploidy−G0/G1) peak to 200 intensity units during flow cytometry. FL2A (FL2-Area) provides the information regarding the pulse area of the emitted fluorescence signal (total cell fluorescence) whereas SSC and FSC provide the information regarding the […] light from the sample. FSC is a measure of diffracted light from the sample proportional to cell surface area or size and SSC is proportional to cell granularity or internal complexity.

phospho-AKT = conditions: cited from earlier work
phospho-FAK = conditions: cited from earlier work
T24 3D-DTMs [3] = experiment: Transfer of dormant T24 3D-DTMs from AM3 to AM1 Amikagel: cell escape, filopodia, microcolony formation; assay type: cell-based; conditions: for formation of micrometastasis-like nodules / microcolonies: 100 μM pre-treated, 15 days after transfer to AM1
Procedure: 1 ml of amikagel AM1, AM2 and AM3 pre-gel solutions were filtered through a 0.20 μm filter and 40 μL of the filtrate was added to each well of a 96 well plate. The plates were sealed with paraffin tape (Parafilm, Menasha, Wis.) and incubated in an oven maintained at 40° C. for 7.5 hours. After gelation, the surfaces of Amikagels were washed with 150 μL of Nanopure® water for 12 hours, in order to remove traces of unreacted monomers.
All 3DTM (3D tumor microenvironments) experiments were set up by liquid overlay culture (2) of cells on top of Amikagel surface in a total volume of […] media/well; either 100,000 cancer cells alone (single culture) or 50,000 stromal cells followed by 50,000 cancer cells (co-culture) were incubated, unless indicated otherwise in specific cases. After 48 hours of incubation, 50% of the media in the wells was replaced with fresh media i.e. DMEM/RPMI+10% (v/v) FBS+1% (v/v) Pen-Strep at regular intervals of 48 hours. Care was taken to withdraw and add the media slowly so as to not perturb 3DTM formation. Fresh media was added every 48 hours following cell plating. For 3DTM generation on 24 well plates, 400 μL of pre-gel volume was used instead of 40 μl. Different co-culture 3DTM systems are represented as fibroblast/stromal cells-epithelial cells (e.g. NIH3T3-T24, WPMY-1-T24) to accurately indicate the sequence of their addition. In most cases, 3DTMs were formed 5-7 days following culture on Amikagels.
T24 3DTMs were first formed on AM3, and transferred to AM1s on the seventh day following initial cell seeding, in order to investigate the role of chemo-mechanical properties of Amikagels on 3DTM fate, and migration of metastatic cells out of the 3DTM spheroid. Upon transfer, cells from 3DTMs were monitored for cell spreading and motility on the gel for an additional 7 days. After 7 days, cell cycle analysis and N-cadherin analysis was carried out on the all 3DTMs. Long-term experiments were also carried out where 3D-DTMs were continuously monitored for 15 days after their transfer from AM3 gel to AM1 gel.

CC(=O)O[C@@]12CO[C@@H]1C[C@H](O)[C@@]1(C)C(=O)[C@H](O)C3=C(C)[C@@H](OC(=O)[C@H](O)[C@@H](NC(=O)OC(C)(C)C)c4ccccc4)C[C@@](O)([C@@H](OC(=O)c4ccccc4)[C@H]21)C3(C)C [Docetaxel, docetaxel]
viability of treated T24 3D-DTMs (T24 3D-DTMs [1]): remained viable | inhibition of cdc42 (cdc42): effectively inhibit | cells in the G2/M phase, treated vs untreated 3D-DTM (T24 3D-DTMs [2]; 96 hours on AM3): No significant differences | cells in the sub-G0/G1 phase of the cell cycle, treated mother 3D-DTM (T24 3D-DTMs [2]; 96 hours on AM3): modest increase | cell cycle profile of treated T24 3D-DTMs (T24 3D-DTMs [2]; following treatment): dormant cell cycle profile | reduction of phospho-AKT expression compared to untreated T24 cells (phospho-AKT): ~41% | reduction of phospho-FAK expression compared to untreated T24 cells (phospho-FAK): ~34% | cellular escape from the mother 3D-DTM (T24 3D-DTMs [3]; 12.5 μM-100 μM): significantly reduced | formation of micrometastasis-like nodules / microcolonies (T24 3D-DTMs [3]): significantly reduced cell escape and microcolony formation | formation of micrometastasis-like nodules / microcolonies (T24 3D-DTMs [3]; listed as docetaxel): drastically reduced | cells escaping the mother spheroid (T24 3D-DTMs [3]; 100 μM pre-treatment on AM3, 48 hours after transfer to AM1): significantly lesser number of cells escaped | filopodia formation on cells shed on AM1 (T24 3D-DTMs [3]; after treatment of T24 3D-DTMs): did not show filopodia formation; also recorded: not observed
